In brackets after ≈: the same amount, converted by molar mass. Numbered stars: 1 amine (or outer) side, 2 acyl side, 3 side chain; on linkers, the order of the positions; unused ones are H or OH. Bridge positions count the residues as written; N and C are the ends. Square brackets hold non-standard residues; d marks the D form. Peptide text beside a SMILES is read from it. * marks the point of attachment. Orn(4R-OH,5R-OCH2CH2NMe3+) = C[N+](C)(C)CCO[C@@H](N[*:3])[C@H](O)C[C@H](N[*:1])C(=O)[*:2]; pTerphenylCO(4''-OnC5H11) = CCCCCOc1ccc(-c2ccc(-c3ccc(C(=O)*)cc3)cc2)cc1; hTyr(3S-OH,4S-OH) = N[C@H](C(=O)O)[C@H](O)[C@@H](O)c1ccc(O)cc1; Pro(3S-OH,4S-Me) = C[C@H]1CN[C@H](C(=O)O)[C@H]1O; Hyp = O=C(O)[C@@H]1C[C@@H](O)CN1
Columns and labels:
[1] = Inhibition of Acinetobacter baumannii beta-lactamase OXA-24
[2] = Inhibition of Acinetobacter baumannii beta-lactamase OXA-143
[3] = Inhibition of Acinetobacter baumannii beta-lactamase OXA-235
[4] = Solubility of the compound at pH 7.4; assay type: physicochemical; settings: buffer
[5] = Aqueous solubility of the compound at pH 1.3 to 8; assay type: physicochemical; settings: buffer
[6] = Stability of the compound at pH 7.30 assessed as degradation half life; assay type: physicochemical; settings: buffer, pH 7.3
[7] = Stability of the compound at pH 1.3 assessed as degradation half life; assay type: physicochemical; settings: buffer
[8] = Stability of the compound assessed as compound hydrolysis by measuring rate constant; assay type: physicochemical
[9] = Stability of the compound at pH 7.4 aqueous phosphate buffer assessed as half-life; assay type: physicochemical
Homo sapiens = species on record: Homo sapiens; test: Inhibition of Leukotriene B4 production in human whole blood; assay type: functional
[10] = Inhibition of Leukotriene B4 production in human blood Polymorphonuclear neutrophil cells; assay type: functional, tissue-based
Mus musculus [11] = test: Anticonvulsant activity in MES induced mouse model of seizure at 75 mg/kg, po measured after 4 hrs relative to control; assay type: functional
[12] = Half-life in rat at 10 mg/kg, po; assay type: ADME, organism-based; settings: in vivo
[13] = Oral bioavailability in mouse; assay type: ADME, organism-based; settings: in vivo
[14] = Oral bioavailability in rat; assay type: ADME, organism-based; settings: in vivo
[15] = Solubility of the compound at pH 7 incubated for 12 hrs by UPLC analysis; assay type: physicochemical; settings: buffer, pH 7, 12 h
[16] = system: Human immunodeficiency virus 1; test: Antiviral activity against HIV1 infected in human MT4 cells assessed as inhibition of viral replication; assay type: functional, organism-based; settings: Human immunodeficiency virus 1, MT4
[17] = Unbound fraction in human plasma; assay type: ADME, cell-free
[18] = Bioavailability in rat at 0.5 mg/kg, iv measured after 30 mins by LC-MS/MS analysis; assay type: ADME, organism-based; settings: in vivo
[19] = Bioavailability in dog at 1 mg/kg, iv measured after 30 mins by LC-MS/MS analysis; assay type: ADME, organism-based, Canis lupus familiaris; settings: in vivo
[20] = system: Human immunodeficiency virus 1; test: Selectivity index, ratio of EC50 for antiviral activity against HIV-1 G140S/Q148R mutant to EC50 for antiviral activity against wild-type HIV-1; assay type: functional
PXR (NR1I2) = PXR (NR1I2) (Homo sapiens, UniProt O75469); test: Activation of PXR (unknown origin) in human DPX2 cells assessed as maximal efficacy at 15 uM relative to control; assay type: cell-based
Chain of PXR (NR1I2) (O75469 whole entry): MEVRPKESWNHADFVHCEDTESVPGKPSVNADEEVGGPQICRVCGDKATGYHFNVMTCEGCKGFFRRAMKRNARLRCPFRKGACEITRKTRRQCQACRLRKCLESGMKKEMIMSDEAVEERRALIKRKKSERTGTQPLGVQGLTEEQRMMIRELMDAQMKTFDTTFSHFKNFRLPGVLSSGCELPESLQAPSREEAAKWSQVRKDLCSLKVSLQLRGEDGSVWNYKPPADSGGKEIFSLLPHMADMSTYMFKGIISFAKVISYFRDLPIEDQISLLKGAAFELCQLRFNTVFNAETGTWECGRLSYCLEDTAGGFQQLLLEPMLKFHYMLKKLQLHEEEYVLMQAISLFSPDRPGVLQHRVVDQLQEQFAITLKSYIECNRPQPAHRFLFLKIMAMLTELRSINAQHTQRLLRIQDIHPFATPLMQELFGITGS

[21] = Half-life in human; assay type: ADME
Mus musculus [22] = test: Ex vivo inhibition of FAAH in ip dosed mouse brain assessed as drug concentration required to inhibit [3H]ethanolamine degradation; assay type: functional; settings: read-out: ID50 (the source's name)
Mus musculus [23] = test: Ex vivo inhibition of FAAH in po dosed mouse brain assessed as drug concentration required to inhibit [3H]ethanolamine degradation; assay type: functional; settings: read-out: ID50 (the source's name)
[24] = Stability in human plasma assessed as drug degradation measured after 44 hrs; assay type: ADME, cell-free; settings: read-out: Drug degradation
[25] = Stability in monkey plasma assessed as drug degradation measured after 44 hrs; assay type: ADME, cell-free, Macaca mulatta; settings: rhesus monkey, read-out: Drug degradation
[26] = Stability in dog plasma assessed as drug degradation measured after 44 hrs; assay type: ADME, cell-free, Canis lupus familiaris; settings: read-out: Drug degradation
[27] = Stability in rat plasma assessed as drug degradation measured after 44 hrs; assay type: ADME, cell-free; settings: read-out: Drug degradation
[28] = biological target: Polymerase acidic protein (Influenza A virus (A/Puerto Rico/8/1934(H1N1)), UniProt P03433); test: Inhibition of Influenza A virus CEN
[29] = system: Human immunodeficiency virus 1; test: microbe, parasite or virus in culture; settings: Human immunodeficiency virus 1, LAV
[30] = system: Human immunodeficiency virus 1; test: Antiviral activity against HIV-1 RF; assay type: functional, organism-based; settings: Human immunodeficiency virus 1, RF
[31] = Half-life of the compound in aqueous solution at pH 6.0; assay type: physicochemical
[32] = Oral bioavailability in dog; assay type: ADME, organism-based, Canis lupus familiaris; settings: in vivo
[33] = biological target: Somatostatin receptor type 2 (Homo sapiens, UniProt P30874); test: Inhibition of human SSTR2
Chain of Somatostatin receptor type 2 (P30874 whole entry): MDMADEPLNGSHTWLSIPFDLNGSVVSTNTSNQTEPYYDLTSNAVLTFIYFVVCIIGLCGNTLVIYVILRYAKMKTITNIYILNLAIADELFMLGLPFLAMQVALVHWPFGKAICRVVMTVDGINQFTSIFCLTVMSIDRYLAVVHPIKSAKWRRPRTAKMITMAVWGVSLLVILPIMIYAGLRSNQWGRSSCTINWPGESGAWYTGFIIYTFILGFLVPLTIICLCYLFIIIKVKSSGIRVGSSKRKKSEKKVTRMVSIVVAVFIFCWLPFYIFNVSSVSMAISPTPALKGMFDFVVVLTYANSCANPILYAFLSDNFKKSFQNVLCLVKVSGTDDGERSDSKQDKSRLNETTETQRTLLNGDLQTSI

CCRF-CEM = test: Anticancer activity against human CCRF-CEM cells; assay type: functional, cell-based
[34] = Oral bioavailability in human; assay type: ADME, organism-based; settings: in vivo
[35] = Drug recovery in mouse urine; assay type: ADME; settings: pooled result: one value given for 8 cell lines, strains, targets or settings, read-out: Drug recovery

## C[C@]1(Cn2ccnn2)[C@H](C(=O)O)N2C(=O)C[C@H]2S1(=O)=O [TAZOBACTAM]
[1]
  IC50: 27900 nM
[2]
  IC50: 5900 nM
[3]
  IC50: 4880 nM

## Nc1nc2c(ncn2COCCO)c(=O)[nH]1 [ACYCLOVIR]
[4]
  solubility: 2500 µg/mL (≈ 11100 µM)

## COc1cc([C@@H]2c3cc4c(cc3[C@@H](O[C@@H]3O[C@@H]5CO[C@@H](C)O[C@H]5[C@H](O)[C@H]3O)[C@H]3COC(=O)[C@H]23)OCO4)cc(OC)c1O [ETOPOSIDE]
[5]
  solubility: 116 µg/mL (≈ 197 µM)
[6]
  half-life: 27.7 h
[7]
  half-life: 2.88 h

## FC1(F)[C@H]2O[C@@H]1[C@H](COCc1ccccc1)[C@@H](COCc1ccccc1)O2
[8]
  K: 2.4 10^-3/M/s
[9]
  half-life: > 720 h

## O=C1OCc2c1cc1cc(OCc3cccc(C4(O)CC5COC(C4)O5)c3)ccc1c2-c1ccoc1 (stereo unspecified)
Homo sapiens
  IC50: 180 nM
[10]
  IC50: 7 nM

## CC1(C)O[C@H]2[C@H](O)[C@H](O)CO[C@@]2(COS(N)(=O)=O)O1
Mus musculus [11]
  Activity: 40%

## CN1CCN(C2CCN(C(=O)CC3CCC4(CC3)OOC3(OO4)C4CC5CC(C4)CC3C5)CC2)CC1 (stereo unspecified)
[12]
  half-life: 2.4 h
[13]
  bioavailability: 42%
[14]
  bioavailability: 38%

## O=C(NCc1c(F)cc(F)cc1F)c1cn2c(c(O)c1=O)C(=O)N1[C@H]3CC[C@H](C3)O[C@@H]1C2 [BICTEGRAVIR]
[15]
  solubility: 119 µg/mL (≈ 265 µM)
[16]
  EC50: 1.9 nM
[17]
  Fu: 0.3%
[18]
  bioavailability: 50%
[19]
  bioavailability: 28%
[20]
  Ratio EC50: 2
PXR (NR1I2)
  Emax at 15 µM: 18%
[21]
  half-life: 19 h

## COc1ccc2c(cccc2[C@H]2CO[C@H](CCCNC(=O)OCC(N)=O)OC2)c1
Mus musculus [22]
  ED50: 0.1 mg/kg
Mus musculus [23]
  ED50: 0.17 mg/kg

## CCCCCOc1ccc(-c2ccc(-c3ccc(C(=O)N[C@H]4C[C@@H](O)[C@@H](OCC[N+](C)(C)C)NC(=O)[C@@H]5[C@@H](O)[C@@H](C)CN5C(=O)[C@H]([C@@H](C)O)NC(=O)[C@H]([C@H](O)[C@@H](O)c5ccc(O)cc5)NC(=O)[C@@H]5C[C@@H](O)CN5C(=O)[C@H]([C@@H](C)O)NC4=O)cc3)cc2)cc1 [REZAFUNGIN] ({pTerphenylCO(4''-OnC5H11)}-[Orn(4R-OH,5R-OCH2CH2NMe3+)]T[Hyp][hTyr(3S-OH,4S-OH)]T[Pro(3S-OH,4S-Me)]; lactam 1-C)
[24]
  metabolised at 44 h: 7%
[25]
  metabolised at 44 h: 6%
[26]
  metabolised at 44 h: 21%
[27]
  metabolised at 44 h: 9%

## COC(=O)OCOc1c2n(ccc1=O)N([C@@H]1c3ccccc3SCc3c1ccc(F)c3F)[C@@H]1COCCN1C2=O [BALOXAVIR MARBOXIL]
[28]
  IC50: 530 nM

## C[C@@H]1CCO[C@H]2Cn3cc(C(=O)NCc4ccc(F)cc4F)c(=O)c(O)c3C(=O)N12 [DOLUTEGRAVIR]
[15]
  solubility: 53 µg/mL (≈ 126 µM)
[16]
  EC50: 1.7 nM
[17]
  Fu: 0.7%
[18]
  bioavailability: 52%
[19]
  bioavailability: 17%
[20]
  Ratio EC50: 4.8
PXR (NR1I2)
  Emax at 15 µM: 51%
[21]
  half-life: 14 h

## Nc1ccn([C@@H]2CS[C@H](CO)O2)c(=O)n1 [LAMIVUDINE]
[29]
  EC50: 2000 nM
[30]
  IC50: 870 nM

## CO[C@@]1(NC(=O)CCC[C@@H](N)C(=O)O)C(=O)N2C(C(=O)O)=C(COC(N)=O)CS[C@@H]21
[31]
  half-life: 459 h

## C[C@@H](c1c[nH]c2ccccc12)[C@H](C(=O)N[C@@H](CCCCN)C(=O)OC(C)(C)C)N1CCN(CCCc2ccccc2)C1=O
[32]
  bioavailability: 5%
[33]
  Ki: 3.6 nM

## Nc1nc(Cl)nc2c1ncn2[C@@H]1O[C@H](CO)[C@@H](O)[C@@H]1F [CLOFARABINE]
CCRF-CEM
  IC50: 60 nM
[34]
  bioavailability: 57%

## CC1(C)O[C@@H]2[C@@H](CC[C@@]3(COS(N)(=O)=O)OC(C)(C)O[C@@H]23)O1
[35]
  dose excreted: 89%
